Laboratory results: patent US12653859B2, “Peptides and medical uses thereof” (Anbition S.R.L., priority 2018, dated 2026)
One block for each compound: values may come before it.

Assays:
[1] = Serum protease stability in 10% fetal calf serum (RP-HPLC); format: in vitro ADME; conditions: 10% FCS
Procedure: The stability of the peptide iVR1-Cys in 10% serum (fetal calf serum, FCS) in a 50 mM phosphate buffer solution, pH 7.3, at 168 h was determined as described by Ponticelli et al., relying on a method based on RP-HPLC chromatography, described therein [Ponticelli et al., J Biol Chem. 2008 Dec. 5; 283 (49): 34250-9].
The reference curve was constructed by dissolving the compound in DMSO at increasing concentrations of between 0.1 μmol/L and 1000 μmol/L in order to have complete dissolution. The concentration of the molecule left in contact with 10% FCS at the initial concentration of 10 μmol/L was then determined by drawing 3 aliquots at time t=0, then every hour in the first 12 hours and then at 24, 72, 120, and 168 h. The aliquots were diluted 1:1 with acetic acid 0.1 M in order to detach any peptide bound to the albumin, centrifuged to remove any precipitated materials and analyzed by RP-HPLC under the conditions reported in Ponticelli et al. The amount of residual peptide detected in the aliquots, expressed as a percentage relative to the initial amount, was plotted as a function of time. The results are shown in Table VII as the mean of the three determinations±the standard deviation (SD).

[2] = molecular target: T1, VEGF-A/VEGFR-1 interaction (Homo sapiens, UniProt P17948); test: ELISA competition assay of VEGF-A binding to VEGFR-1; conditions: tetrameric peptides of formula (II) with Y2 different from D-cysteine; read-out: IC50 of inhibition of the interaction VEGF-A/VEGFR-1
T1 construct: the form consisting of the seven extracellular domains of the receptor fused to the Fc domain of human IgG; purchased R&D Systems 321-FL (receptor); 293-VE (VEGF-A)
T1 sequence (P17948 27-758 limits assumed): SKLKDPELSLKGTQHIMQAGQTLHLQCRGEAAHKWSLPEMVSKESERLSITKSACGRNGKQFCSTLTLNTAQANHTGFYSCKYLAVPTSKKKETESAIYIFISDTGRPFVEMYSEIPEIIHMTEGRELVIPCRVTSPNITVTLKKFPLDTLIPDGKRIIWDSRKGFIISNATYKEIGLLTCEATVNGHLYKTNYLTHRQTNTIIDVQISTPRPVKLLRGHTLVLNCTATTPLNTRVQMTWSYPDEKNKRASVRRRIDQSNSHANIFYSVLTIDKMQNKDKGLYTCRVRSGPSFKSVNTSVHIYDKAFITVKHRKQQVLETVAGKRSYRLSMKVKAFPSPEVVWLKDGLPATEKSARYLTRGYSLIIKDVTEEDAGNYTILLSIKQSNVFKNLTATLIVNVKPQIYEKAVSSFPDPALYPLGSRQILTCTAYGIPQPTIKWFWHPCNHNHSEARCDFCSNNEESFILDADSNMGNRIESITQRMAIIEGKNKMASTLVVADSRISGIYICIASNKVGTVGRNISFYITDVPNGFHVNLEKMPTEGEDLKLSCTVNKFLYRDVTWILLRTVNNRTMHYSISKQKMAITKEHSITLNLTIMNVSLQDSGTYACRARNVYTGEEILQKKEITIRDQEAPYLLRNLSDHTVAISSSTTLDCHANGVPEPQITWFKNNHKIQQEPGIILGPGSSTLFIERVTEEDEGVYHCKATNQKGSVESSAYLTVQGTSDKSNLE
Procedure: The binding reaction was conducted for one hour at 37° C., followed by one hour at room temperature. At the end of the binding and/or competition step, anti-human-PIGF biotinylated polyclonal antibodies (R&D Systems, cat No. BAF264) or anti-human-VEGF-A (R&D Systems, cat No. BAF293) were added to the wells at the concentration of 300 ng/ml in PBET. After one hour of incubation at 37° C. followed by one hour at room temperature, an HRP-conjugated avidin-streptavidin system (Vectastain elite ABC kit) and a substrate for HRP (o-phenylenediamine-Sigma, cat No. P1526) were added to the wells. Quantization was performed by determining the absorbance at 490 nm. Any inhibitory activity of the peptides was expressed in terms of % of residual binding, comparing the data obtained for the binding of PIGF or VEGF-A to the receptors in the presence of the tetrameric peptides with those in the absence of the same. iVR1 represented the positive control of the inhibition of the PIGF/VEGFR-1 or VEGF-A/VEGFR-1 interaction.

% residual peptide ± SD ([1]; 0 h, 50 mM phosphate buffer pH 7.3, initial 10 μmol/L): 101 ± 4%
remaining at 1 h, 10 μmol/L ([1]; cattle (fetal calf), 10% fetal calf serum in phosphate buffer, 1 h, pH 7.3, read-out: % residual peptide ± SD): 100 ± 11%
remaining at 2 h, 10 μmol/L ([1]; cattle (fetal calf), 10% fetal calf serum in phosphate buffer, 2 h, pH 7.3, read-out: % residual peptide ± SD): 99 ± 7%
remaining at 3 h, 10 μmol/L ([1]; cattle (fetal calf), 10% fetal calf serum in phosphate buffer, 3 h, pH 7.3, read-out: % residual peptide ± SD): 98 ± 5%
remaining at 4 h, 10 μmol/L ([1]; cattle (fetal calf), 10% fetal calf serum in phosphate buffer, 4 h, pH 7.3, read-out: % residual peptide ± SD): 97 ± 4%
remaining at 5 h, 10 μmol/L ([1]; cattle (fetal calf), 10% fetal calf serum in phosphate buffer, 5 h, pH 7.3, read-out: % residual peptide ± SD): 96 ± 5%
remaining at 6 h, 10 μmol/L ([1]; cattle (fetal calf), 10% fetal calf serum in phosphate buffer, 6 h, pH 7.3, read-out: % residual peptide ± SD): 99 ± 6%
remaining at 7 h, 10 μmol/L ([1]; cattle (fetal calf), 10% fetal calf serum in phosphate buffer, 7 h, pH 7.3, read-out: % residual peptide ± SD): 95 ± 8%
remaining at 8 h, 10 μmol/L ([1]; cattle (fetal calf), 10% fetal calf serum in phosphate buffer, 8 h, pH 7.3, read-out: % residual peptide ± SD): 96 ± 5%
remaining at 9 h, 10 μmol/L ([1]; cattle (fetal calf), 10% fetal calf serum in phosphate buffer, 9 h, pH 7.3, read-out: % residual peptide ± SD): 95 ± 6%
remaining at 10 h, 10 μmol/L ([1]; cattle (fetal calf), 10% fetal calf serum in phosphate buffer, 10 h, pH 7.3, read-out: % residual peptide ± SD): 94 ± 10%
remaining at 11 h, 10 μmol/L ([1]; cattle (fetal calf), 10% fetal calf serum in phosphate buffer, 11 h, pH 7.3, read-out: % residual peptide ± SD): 94 ± 8%
remaining at 12 h, 10 μmol/L ([1]; cattle (fetal calf), 10% fetal calf serum in phosphate buffer, 12 h, pH 7.3, read-out: % residual peptide ± SD): 93 ± 4%
remaining at 24 h, 10 μmol/L ([1]; cattle (fetal calf), 10% fetal calf serum in phosphate buffer, 24 h, pH 7.3, read-out: % residual peptide ± SD): 93 ± 6%
remaining at 72 h, 10 μmol/L ([1]; cattle (fetal calf), 10% fetal calf serum in phosphate buffer, 72 h, pH 7.3, read-out: % residual peptide ± SD): 92 ± 7%
remaining at 120 h, 10 μmol/L ([1]; cattle (fetal calf), 10% fetal calf serum in phosphate buffer, 120 h, pH 7.3, read-out: % residual peptide ± SD): 91 ± 5%
remaining at 168 h, 10 μmol/L ([1]; cattle (fetal calf), 10% fetal calf serum in phosphate buffer, 168 h, pH 7.3, read-out: % residual peptide ± SD): 92 ± 8%
Compound: NC(=O)[C@@H](CS)NC(=O)C(CCCCNC(=O)C(CCCCNC(=O)[C@H](CC1CCCCC1)NC(=O)C(CSCc1ccccc1)NC(=O)[C@H](N)CCC(=O)O)NC(=O)[C@H](CC1CCCCC1)NC(=O)C(CSCc1ccccc1)NC(=O)[C@H](N)CCC(=O)O)NC(=O)C(CCCCNC(=O)[C@H](CC1CCCCC1)NC(=O)C(CSCc1ccccc1)NC(=O)[C@H](N)CCC(=O)O)NC(=O)[C@H](CC1CCCCC1)NC(=O)C(CSCc1ccccc1)NC(=O)[C@H](N)CCC(=O)O (some centres unmarked) [iVR1-Cys]

IC50 [2]: 2430 ± 3000 nM
Compound: D-serine

IC50 [2]: 2030 ± 200 nM
Compound: L-cysteine

IC50 [2]: 4620 ± 1400 nM
Compound: L-methionine sulfone
